The results in this text go back to ChEMBL document CHEMBL1142050, “A two-state homology model of the hERG K+ channel: application to ligand binding” (Bioorg Med Chem Lett, 2005).

Test [1] has as its target T1, Voltage-gated inwardly rectifying potassium channel KCNH2 (Homo sapiens, UniProt Q12809). Briefly: Inhibition of human voltage-gated potassium channel subunit Kv11.1 (ERG K+ channel) in open state. The test is classed as functional.
Test [2] addresses T1, Voltage-gated inwardly rectifying potassium channel KCNH2. Briefly: Inhibition of partially open human voltage-gated potassium channel subunit Kv11.1 (ERG K+ channel).

T1 sequence (Q12809 whole entry): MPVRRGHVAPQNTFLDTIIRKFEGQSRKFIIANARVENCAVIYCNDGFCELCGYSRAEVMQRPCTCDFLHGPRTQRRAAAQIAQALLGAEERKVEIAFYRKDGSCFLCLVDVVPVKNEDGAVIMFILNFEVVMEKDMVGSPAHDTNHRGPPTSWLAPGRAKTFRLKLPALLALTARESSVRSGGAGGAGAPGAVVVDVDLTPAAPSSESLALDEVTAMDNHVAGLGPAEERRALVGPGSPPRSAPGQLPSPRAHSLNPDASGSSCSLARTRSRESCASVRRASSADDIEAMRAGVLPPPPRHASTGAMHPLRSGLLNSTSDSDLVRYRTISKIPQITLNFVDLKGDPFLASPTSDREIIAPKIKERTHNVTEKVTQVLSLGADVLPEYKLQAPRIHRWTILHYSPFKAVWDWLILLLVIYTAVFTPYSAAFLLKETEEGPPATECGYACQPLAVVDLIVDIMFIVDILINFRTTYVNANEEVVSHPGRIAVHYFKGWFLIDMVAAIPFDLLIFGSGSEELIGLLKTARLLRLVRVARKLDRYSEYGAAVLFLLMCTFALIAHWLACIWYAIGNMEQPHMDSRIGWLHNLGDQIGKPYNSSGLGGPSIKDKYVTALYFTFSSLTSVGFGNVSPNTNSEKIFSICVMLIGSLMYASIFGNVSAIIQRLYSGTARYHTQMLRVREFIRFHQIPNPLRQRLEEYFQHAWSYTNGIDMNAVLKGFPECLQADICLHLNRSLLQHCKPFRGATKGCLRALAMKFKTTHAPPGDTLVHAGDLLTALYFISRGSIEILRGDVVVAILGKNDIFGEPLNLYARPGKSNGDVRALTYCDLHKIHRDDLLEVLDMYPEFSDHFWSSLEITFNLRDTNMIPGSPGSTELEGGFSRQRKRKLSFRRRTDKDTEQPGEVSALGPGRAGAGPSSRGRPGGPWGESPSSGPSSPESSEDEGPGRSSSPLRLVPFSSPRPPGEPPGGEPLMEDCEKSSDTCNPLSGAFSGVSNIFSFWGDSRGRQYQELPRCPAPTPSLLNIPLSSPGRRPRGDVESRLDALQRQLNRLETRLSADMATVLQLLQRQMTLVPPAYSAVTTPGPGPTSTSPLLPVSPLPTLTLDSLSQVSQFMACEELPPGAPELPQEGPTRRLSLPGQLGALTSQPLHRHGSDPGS

With `CN1CCN(CCCCN2C(=O)CN(/N=C/c3ccc(-c4ccc(Cl)cc4)o3)C2=O)CC1`, in test [1], half-maximal inhibition (IC50) was put at 562 nM.

Take `CN(c1nccc(=O)[nH]1)C1CCN(c2nc3ccccc3n2Cc2ccc(F)cc2)CC1` [MIZOLASTINE]: the IC50 (as a rule, the concentration needed to halve the response being measured) in test [2] was 355 nM.

For the compound `C[C@@H]1CN(c2c(F)c(N)c3c(=O)c(C(=O)O)cn(C4CC4)c3c2F)C[C@H](C)N1` [SPARFLOXACIN], the IC50 in test [1] is 26300 nM.
